No end group written: not given here.
Key:
[1] = Absorption and emission spectra of fluoresceins and SDMA conjugates (Example 33); assay type: physicochemical; conditions: PBS buffer
Description: The maximum absorption of fluorescein (Fl) in PBS buffer is at 489 nm and the maximum fluorescence emission is at 515 nm. When the fluorescein molecule is conjugated with an SDMA molecule via a —CH2NH— linker (i.e., to provide SDMA-Fl), its maximum absorption and emission are shifted to 495 nm and 525 nm, respectively. When the fluorescein molecule is substituted by fluorine at the 2′ and 7′ positions (i.e., to provide DFF) there is no any change in the maximum absorption and emission compared to unsubstituted fluorescein. When the fluorescein molecule is substituted by chloride at the 2′ and 7′ positions (i.e., to provide DCF) the maximum absorption and emission are red-shifted to 500 nm and 525 nm, respectively. Also conjugating DFF or DCF to SDMA via a —CH2NH— linker (i.e., to provide SDMA-DFF and SDMA DCF, respectively) results in the maximum absorption and emission being red-shifted. The maximum absorption and emission wavelengths of fluorescein (FL), 2′,7′-difluorofluorescien (DFF), 2′,7′-dichlorofluorescien (DCF), and their conjugates with SDMA via a —CH2NH— linker (i.e., SDMA-Fl (i.e., structure A3), SDMA-DFF, and SDMA-DCF) are listed in the Table provided below. The absorption spectra of DFF, SDMA-DFF, DCF, SDMA-DCF, Fl, and SDMA-FL are depicted in FIG. 25A and the emission spectra of SDMA-DFF, SDMA-DCF, Fl, and SDMA-FL are depicted in FIG. 25B.

anti-T4 antibody = experiment: Maximum percentage fluorescence quenching of T2-F, T3-F, T4-F by anti-T4 antibody with and without quencher label (Example 27 table); assay type: binding
Protocol: In another experiment, tracer T2-F, T3-F, or T4-F was dissolved in DMSO to provide a DMSO solution at a tracer concentration of 1 mM. The DMSO solution was then diluted with phosphate buffered saline (“PBS”) to provide a stock solution of each tracer at a concentration of 10 μM. Monoclonal anti-T4-Mab or anti-T4-Mab conjugated to a quencher (Cy3-Ab, IRdyeQC1-Ab, Cy5-Ab, BHQ1-Ab) were serially diluted in PBS to provide solutions having an Anti-T4-Mab or anti-T4-Mab conjugated to quencher at concentration ranging from 0 to 2 μM. In a 96 well black assay plate containing the serially diluted Anti-T4-Mab or anti-T4-Mab conjugated to quencher (95 μL) was added the tracer T2-F, T3-F, or T4-F solution (5 μL), mixed well, and incubated for 30 min and the fluorescence intensities then recorded at an excitation wavelength of 485 nm and an emission wavelength of 520 nm. The results of maximum percentage fluorescence quenching for different tracers and quencher-modified antibodies are provided in the following Table: […]

anti-T4-Mab = experiment: Fluorescence of T3 tracers and anti-T4-Mab in the presence of T4 (Example 20); assay type: binding; conditions: PBS, tracer and antibody equimolar
Protocol: Similar solutions were prepared and the fluorescence measured except that the T3-F was replaced with T3-5-F, T3-E-F and T3-FITC.

[2] = system: Monoclonal anti-NT-proBNP antibody (ADX-15 Mab); experiment: Fluorescence quenching of canine NT-proBNP peptide-Fl/DFF conjugates by anti-NT-proBNP Mab and Ab-BHQ10 (Example 52); assay type: binding; conditions: for Percentage Fluorescence Quenching, DFF Conjugate, Ab-BHQ10 / Percentage Fluorescence Quenching, DFF Conjugate, Ab: NT-proBNP peptide-difluorofluorescein conjugate; for Percentage Fluorescence Quenching, DFF Conjugate, Ab-BHQ10 / Percentage Fluorescence Quenching, F1 Conjugate, Ab-BHQ10: mAb-BHQ10; for Percentage Fluorescence Quenching, DFF Conjugate, Ab-BHQ10 / Percentage Fluorescence Quenching, DFF Conjugate, Ab / Percentage Fluorescence Quenching, F1 Conjugate, Ab-BHQ10: molar ratio of 1:1; for Percentage Fluorescence Quenching, DFF Conjugate, Ab-BHQ10 / Percentage Fluorescence Quenching, DFF Conjugate, Ab / Percentage Fluorescence Quenching, F1 Conjugate, Ab / Percentage Fluorescence Quenching, F1 Conjugate, Ab-BHQ10: No = No Quenching; for Percentage Fluorescence Quenching, F1 Conjugate, Ab / Percentage Fluorescence Quenching, F1 Conjugate, Ab-BHQ10: NT-proBNP peptide-fluorescein conjugate; for Percentage Fluorescence Quenching, F1 Conjugate, Ab: Ab/Conjugate molar ratio of 1:1; for quenching of peptide-Fl or -DFF conjugates upon addition of antibody or antibody-BHQ10: any molar ratio from 1:1 to 8:1; for fluorescence quenching: ratio of 8:1; for fluorescence quenching reached (up to) by anti-NT-proBNP antibody: unmodified antibody, titration 0 to 800 nM
Protocol: NT-proBNP peptide-fluorescein (Fl) or -difluorofluorescein (DFF) conjugates were dissolved in DMSO (0.4 mM) and diluted with PBS to provide a stock solution (100 nM). Monoclonal anti-NT-proBNP antibody (ADX-15 Mab, IDEXX Laboratories Inc. of Westbrook, ME) (6.84 mg/ml) was serially diluted in PBS buffer to provide solutions having an antibody concentration ranging from 0 to 800 nM in PBS. In a 96 well black assay plate containing the serially diluted antibody solution (50 μL) was added the P1-Fl or P1-DFF, or other peptide-Fl or Peptide-DFF solution (50 μL), mixed well, incubated for 30 min and the fluorescence intensities recorded (excitation at 485 nm and emission at 520 nm). The results are provided in FIG. 47, FIG. 48, and Table 2.

[3] = system: Monoclonal anti-CysB antibody (7C2); experiment: Fluorescence quenching of canine CysB peptide-Fl/DFF conjugates by anti-CysB Mab or Mab-BHQ10 (Example 51); assay type: binding, mouse
Protocol: CysB peptide-fluorescein (Fl) or -difluorofluorescein (DFF) conjugates were dissolved in DMSO (0.5 mM) and diluted with Tris Buffer ([…] at pH8.0) to provide a stock solution (100 nM). Monoclonal anti-CysB antibody (7C2, raised against a peptide having the amino acid sequence of SEQ ID NO: 14) (8 mg/ml) was serially diluted in PBS buffer to provide solutions having an Anti-CysB-Mab concentration ranging from 0 to 800 nM in Tris buffer (50 mM at pH 8.0 with 0.5% sarkosyl (sodium lauroyl sarcosinate)). In a 96-well black assay plate containing the serially diluted Anti-CysB-Mab solution (50 μL) was added the peptide-Fl or peptide-DFF solution (50 μL), mixed well, incubated for 30 min and the fluorescence intensities recorded. The results are provided in FIG. 38, 39, 40, and Table 1.

anti-CysB Mab = experiment: Peptide/full length canine CysB protein dose response in Tris buffer and serum (Example 51); assay type: binding, mouse
Protocol: A mixture of CysB P6-Fl or P6-DFF in Tris buffer with 0.1% Tween 20 (200 nM, 25 μL) and anti-Cys-Mab in Tris buffer with 0.1% Tween 20 (400 nM, 25 μL) was incubated at room temperature for 30 min in the wells of a 96 well black assay plate. A series of CysB peptides P6, P7, and P14 standard solutions having peptide concentrations ranging from 0 to 3200 nM (50 μL) were then added to the mixtures of the P6-Fl or P6-DFF and anti-CysB Mab in Tris Buffer. The plate was then incubated for 30 min at room temperature and the fluorescence intensities recorded at an excitation of 485 nm and an emission of 520 nm. The results are shown in FIG. 43, FIG. 44, FIG. 45, and FIG. 46.

O=C1OC2(c3cc(Cl)c(O)cc3Oc3cc(O)c(Cl)cc32)c2ccccc21 [DCF, 2′,7′-dichlorofluorescien]
Max Absorption [1]: 500 nm
Max Emision [1]: 525 nm

O=C1OC2(c3cc(F)c(O)cc3Oc3cc(O)c(F)cc32)c2ccccc21 [DFF, 2′,7′-difluorofluorescien]
Max Absorption [1]: 489 nm
Max Emision [1]: 515 nm

O=C(O)c1ccccc1-c1c2ccc(=O)cc-2oc2cc(O)ccc12 [Fl, fluorescein]
Max Absorption [1]: 489 nm
Max Emision [1]: 515 nm
Max Absorption ([1]; listed as FI): 483 nm

CNC(=NCCCC(N)C(=O)NCc1c(O)c(Cl)cc2c(-c3ccccc3C(=O)O)c3cc(Cl)c(=O)cc-3oc12)NC (stereo not shown) [SDMA-DCF]
Max Absorption [1]: 510 nm
Max Emision [1]: 535 nm

O=C(O)c1ccccc1-c1c2ccc(=O)cc-2oc2c(CNC(Cc3cc(I)c(Oc4ccc(O)cc4)c(I)c3)C(=O)O)c(O)ccc12 (stereo not shown) [T2-F]
Percentage of fluorescence quenching, BHQ1-Ab (anti-T4 antibody; anti-T4-Mab conjugated to BHQ1): 11%
Percentage of fluorescence quenching, Cy5-Ab (anti-T4 antibody; anti-T4-Mab conjugated to Cy5): 16%
Percentage of fluorescence quenching, IRdyeQC1-Ab (anti-T4 antibody; anti-T4-Mab conjugated to IRdyeQC1): 8%
Percentage of fluorescence quenching, Ab (anti-T4 antibody; anti-T4-Mab without quencher): 22%

O=C(NC(Cc1cc(I)c(Oc2ccc(O)c(I)c2)c(I)c1)C(=O)O)c1ccc(-c2c3ccc(=O)cc-3oc3cc(O)ccc23)c(C(=O)O)c1 (stereo not shown) [T3-5-F, T3-5-Fluorescein]
fluorescence quenching by anti-T4-Mab (anti-T4-Mab): not quenched

O=C(O)c1ccccc1-c1c2ccc(=O)cc-2oc2c(CNCCNC(Cc3cc(I)c(Oc4ccc(O)c(I)c4)c(I)c3)C(=O)O)c(O)ccc12 (stereo not shown) [T3-E-F, T3-Ethyl-Fluorescein]
fluorescence quenching by anti-T4-Mab (anti-T4-Mab): quenched

O=C(O)c1cc(NC(=S)NC(Cc2cc(I)c(Oc3ccc(O)c(I)c3)c(I)c2)C(=O)O)ccc1-c1c2ccc(=O)cc-2oc2cc(O)ccc12 (stereo not shown) [T3-FITC]
fluorescence quenching by anti-T4-Mab (anti-T4-Mab): not quenched

AEQLAL [P2]
Percentage Fluorescence Quenching, DFF Conjugate, Ab-BHQ10 [2]: No
Percentage Fluorescence Quenching, DFF Conjugate, Ab [2]: No
Percentage Fluorescence Quenching, F1 Conjugate, Ab [2]: No
Percentage Fluorescence Quenching, F1 Conjugate, Ab-BHQ10 [2]: No
quenching of peptide-Fl or -DFF conjugates upon addition of antibody or antibody-BHQ10 [2]: no quenching

EPLHRS [P3]
Percentage Fluorescence Quenching, DFF Conjugate, Ab-BHQ10 [2]: No
Percentage Fluorescence Quenching, DFF Conjugate, Ab [2]: No
Percentage Fluorescence Quenching, F1 Conjugate, Ab [2]: No
Percentage Fluorescence Quenching, F1 Conjugate, Ab-BHQ10 [2]: No
quenching of peptide-Fl or -DFF conjugates upon addition of antibody or antibody-BHQ10 [2]: no quenching

NT-proBNP P6-Fl: NT-proBNP peptide LEPLHRS conjugated to 5-position of fluorescein (also: conjugated to 5-position of fluorescein, peptide site not given here)
fluorescence quenching [2]: approximately 10%

P1-DFF: NT-proBNP peptide AEQLALEPLHRS conjugated to 5-position of DFF (also: conjugated to 5-position of DFF, peptide site not given here)
fluorescence quenching reached (up to) by anti-NT-proBNP antibody-BHQ10 [2]: approximately 65%
fluorescence quenching reached (up to) by anti-NT-proBNP antibody [2]: approximately 70%

P1-Fl: NT-proBNP peptide AEQLALEPLHRS conjugated to 5-position of fluorescein (also: conjugated to 5-position of fluorescein, peptide site not given here)
fluorescence quenching reached (up to) by anti-NT-proBNP antibody-BHQ10 [2]: 40%
fluorescence quenching reached (up to) by anti-NT-proBNP antibody [2]: 70%

P5-Fl: CysB peptide GELAYF conjugated to 5-position of fluorescein (also: conjugated to 5-position of fluorescein, peptide site not given here)
quenching of 4′-position conjugate compared with 5-position conjugate ([3]; anti-CysB mAb): higher quenching

P6-DFF: CysB peptide GDELAYF conjugated to 5-position of DFF (also: conjugated to 5-position of DFF, peptide site not given here)
Maximum quenching ([3]; anti-CysB-Mab, molar ratio of about 4:1): ~45%
fluorescence quenching [2]: approximately 10%

P6-Fl: CysB peptide GDELAYF conjugated to 5-position of fluorescein (also: conjugated to 5-position of fluorescein, peptide site not given here)
quenching by anti-CysB Mab-BHQ10 relative to un-modified mAb [3]: slightly higher
fluorescence quenching ([3]; molar ratio of antibody to P6-Fl of about 8:1, unmodified anti-CysB-Mab): ~30%

P7-Fl: CysB peptide GHDELAYF conjugated to 5-position of fluorescein (also: conjugated to 5-position of fluorescein, peptide site not given here)
fluorescence quenching relative to P6-Fl ([3]; anti-CysB-Mab): weaker quenching

YQTNKAKHDELAYF [P14]
fluorescence intensity as a function of CysB peptide concentration (anti-CysB Mab; peptide 0 to 3200 nM added to mixture of antibody and P6-Fl or P6-DFF, Tris buffer): a dose response was observed

B1: CysB full length protein: canine cystatin-B, SEQ ID NO: 1 (protein, listed as Canis familiaris)
chain: MMCGAPSASQPATADTQAIADQVKAQLEERENKKYTTFKAVTFRSQVVAGTPYFIKVQVDDDEFVHLRVFQSLPHENKPLALSSYQTNKAKHDELAYF
fluorescence intensity as a function of CysB full length protein concentration (anti-CysB Mab; added to mixture of antibody and tracer in the presence of varying concentrations of sarkosyl): a dose response was observed
dose response of CysB full length protein in serum (anti-CysB Mab; antibody or antibody-BHQ10 with P6-Fl or P6-DFF, sarkosyl (1%)): dose response was also observed

— US12345641B2, “Fluorescence quenching immunoassay” (IDEXX Laboratories, Inc., priority 2020, dated 2025)
